According to article PMC3743129 (ACS medicinal chemistry letters, 2013):
Marks after values point to notes of the source that are not given here.

Tests used:
MeV-Edm = experiment: microbe, parasite or virus in culture; assay type: cell-based; conditions: Measles morbillivirus, read-out: EC50 against MeV strain Edmonston
[1] = system: a number of different viruses; conditions: cited from earlier work
[2] = assay type: in vitro ADME
in vitro = in vitro ADME

For `CN(Cc1nc(-c2ccccc2)c(-c2ccccc2)n1C)c1ccccc1` [Compound 28a], the EC50 (MeV-Edm) was 810 nM.

For `COc1ccc(-n2c(SC(C)C(=O)Nc3ccc(C)cc3Cl)nc3ccccc32)cc1` (stereo not drawn) [Compound 1], the “activity against a number of different viruses in cell culture” value [1] is listed as “low nanomolar activity”.

With `C#CCn1c([S+](=O)([O-])Cc2ccc(F)cc2)nc(-c2ccccc2)c1-c1ccccc1` [Compound 3] the “S9 stability T1/2 hamster” value [2] was <2.5 min.

With `O=S(=O)(Cc1ccccc1)c1nc(-c2ccccc2)c(-c2ccccc2)[nH]1` [Compound 13a] the “S9 stability T1/2 hamster” value [2] was <2.5 min.

For `Cn1c(S(=O)(=O)Cc2ccccc2)nc(-c2ccccc2)c1-c1ccccc1` [Compound 13b], the “S9 stability T1/2 hamster” value [2] was <2.5^b min, the “metabolite peak in LC-MS, % of total area” value (in vitro; human, 20 min, 100 μM) was 91% and the half-life (in vitro; human, s9) was 2 to 12 min. The “S9 stability T1/2 human” value (in vitro; s9) was 2-12^b min.

With `Cn1c(S(=O)(=O)Cc2ccc(F)cc2)nc(-c2ccc(F)cc2)c1-c1ccc(F)cc1` [Compound 13c] the “S9 stability T1/2 hamster” value [2] was <2.5^b min.
